Counter-ions that a name gives are not always drawn.
Tests used:
[1] = Complementary salt analysis (stability, hygroscopicity); assay type: physicochemical; settings: for Hygroscopicity: salt from Protocol 4; for Salt stability: stability evaluation 1 week at 40° C./75% Relative humidity
[2] = Dog bioavailability study; parameters: species or system beagle dogs; settings: in vivo, po, 25 mg/kg
Method: The dogs are not fasted before dosing, and have free access to water. Every day of the treatment, a half food ration is provided after the T0 blood sampling, 8 to 17 min before treatment, and the second half ration is given just after dosing or 1 h after treatment for period 2. A 3 days washout period is ensured between treatments. […] The capsule composition is described in Table XX below. The capsules are administered orally with water (5-10 mL), to provide good oesophageal transit. Each animal is checked at least once daily. Blood is collected from the jugular vein into lithium heparinised tubes at T0 (before food administration) and then at 1 […], and 24 h post treatment. Plasma is then obtained from blood by centrifugation (2500 g for 10 min at 4° C.), and stored at -20° C. until analysis. […] After vortex mixing and centrifugation at 4° C., the supernatants are diluted with a 0.5 volume of HPLC grade water in a midi-eppendorf 96-well plate. The plate is sealed and shaken to ensure sample homogeneity prior to analysis. […] Pharmacokinetic analysis is performed using WinNonlinTM software version 5.3, using concentrations from individual animals. Non-compartmental analysis is applied to determine the PK parameters (Cmax, Tmax, AUC0-last, t1/2, etc. . . . ) Concentrations below the limit of detection are set to zero for descriptive statistics and PK parameter calculations.

[3] = Dissolution in solvents (salt Protocol 1); assay type: physicochemical; settings: DCM, up to 20 relative volumes, agitated at 50° C.
Excerpt: The solvent is selected from isopropanol, ethanol, methanol, isopropyl acetate, THF, TBME, acetone, methyl ethyl ketone, DCM, and MeCN.

| Hygroscopicity [1] | Salt stability [1] | Structure (SMILES) | further results |
| --- | --- | --- | --- |
| non-hygroscopic | stable | Cl.O=C(Nc1nc2cccc(-c3ccc(CN4CCS(=O)(=O)CC4)cc3)n2n1)C1CC1 [Compound 1 HCl salt] |  |
|  | stable | O=C(Nc1nc2cccc(-c3ccc(CN4CCS(=O)(=O)CC4)cc3)n2n1)C1CC1.O=C(O)/C=C\C(=O)O [Compound 1 maleic acid salt] |  |
|  |  | Cl.O.O.O.O=C(Nc1nc2cccc(-c3ccc(CN4CCS(=O)(=O)CC4)cc3)n2n1)C1CC1 [Compound 1.HCl.3H2O] | Tmax [2]: 2.0 h |
|  |  | O=C(Nc1nc2cccc(-c3ccc(CN4CCS(=O)(=O)CC4)cc3)n2n1)C1CC1 [Compound 1, cyclopropane carboxylic acid {5-[4-(1,1-dioxo-thiomorpholin-4-ylmethyl)-phenyl]-[1,2,4]triazolo[1,5-a]pyridin-2-yl}-amide] | Dissolution in solvent [3]: almost full dissolution |
| non-hygroscopic |  | O=C(O)/C=C\C(=O)O [Compound 1 maleic acid salt] |  |

— patent US10919890B2, “Salts and pharmaceutical compositions thereof for the treatment of inflammatory disorders” (GALAPAGOS NV, priority 2014, dated 2021)
